{"source": "patent US10233173B2", "about": "“Substituted 1,2,3-triazoles as NR2B-selective NMDA modulators” (JANSSEN PHARMACEUTICA NV, priority 2016, dated 2019)", "data": [{"molecular_target": "human GluN1/GluN2B NMDA receptors (Homo sapiens, UniProt Q05586+Q13224)", "sequence (Q13224 27-1484, other chains not shown)": "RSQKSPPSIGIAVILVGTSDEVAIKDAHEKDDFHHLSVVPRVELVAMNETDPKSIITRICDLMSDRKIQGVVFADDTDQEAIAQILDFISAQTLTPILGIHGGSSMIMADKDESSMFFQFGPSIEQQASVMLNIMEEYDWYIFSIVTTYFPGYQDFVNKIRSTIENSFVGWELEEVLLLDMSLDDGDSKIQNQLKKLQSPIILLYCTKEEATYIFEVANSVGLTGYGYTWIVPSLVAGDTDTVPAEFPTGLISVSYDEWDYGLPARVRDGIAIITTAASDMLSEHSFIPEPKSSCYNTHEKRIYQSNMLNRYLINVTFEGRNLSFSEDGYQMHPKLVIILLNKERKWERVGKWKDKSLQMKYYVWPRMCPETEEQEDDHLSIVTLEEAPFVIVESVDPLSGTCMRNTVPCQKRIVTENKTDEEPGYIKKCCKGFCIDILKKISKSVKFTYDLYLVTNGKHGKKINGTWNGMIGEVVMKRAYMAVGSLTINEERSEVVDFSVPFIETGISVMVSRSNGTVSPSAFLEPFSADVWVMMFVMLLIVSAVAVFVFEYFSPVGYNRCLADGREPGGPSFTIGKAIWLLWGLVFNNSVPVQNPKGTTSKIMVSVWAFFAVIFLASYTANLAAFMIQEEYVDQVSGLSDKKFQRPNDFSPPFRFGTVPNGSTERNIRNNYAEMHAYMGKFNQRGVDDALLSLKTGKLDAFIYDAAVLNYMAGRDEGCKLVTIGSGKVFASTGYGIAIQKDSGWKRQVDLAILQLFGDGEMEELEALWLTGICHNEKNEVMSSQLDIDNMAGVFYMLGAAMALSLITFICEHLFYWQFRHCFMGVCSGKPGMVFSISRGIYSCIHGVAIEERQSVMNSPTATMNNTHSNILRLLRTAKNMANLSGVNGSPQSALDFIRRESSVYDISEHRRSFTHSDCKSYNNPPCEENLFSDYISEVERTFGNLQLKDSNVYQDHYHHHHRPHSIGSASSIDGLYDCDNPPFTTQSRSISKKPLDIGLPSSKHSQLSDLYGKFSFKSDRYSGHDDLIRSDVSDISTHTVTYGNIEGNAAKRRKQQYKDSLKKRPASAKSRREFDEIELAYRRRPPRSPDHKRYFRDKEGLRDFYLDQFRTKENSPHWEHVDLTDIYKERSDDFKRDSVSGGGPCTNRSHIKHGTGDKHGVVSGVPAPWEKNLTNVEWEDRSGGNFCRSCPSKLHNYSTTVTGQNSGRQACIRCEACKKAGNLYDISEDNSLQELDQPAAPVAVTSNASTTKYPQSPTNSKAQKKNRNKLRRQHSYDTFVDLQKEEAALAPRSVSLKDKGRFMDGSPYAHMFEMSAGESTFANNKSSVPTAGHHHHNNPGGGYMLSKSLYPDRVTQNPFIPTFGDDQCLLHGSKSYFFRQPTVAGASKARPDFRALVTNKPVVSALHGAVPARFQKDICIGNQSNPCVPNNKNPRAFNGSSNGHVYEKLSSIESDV", "assay": "Cell-based calcium flux (FLIPR) assay on cloned human NR1/NR2B ion channels expressed in mammalian cells", "details": "standard assay; human GluN1/GluN2B, calcium flux (FLIPR), glutamate ~EC80", "summary_of_the_method": "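Calcium influx followed by FLIPR fluorescence after 5 min compound exposure and a further 5 min co-agonist challenge: 10 μM glycine with glutamate at ~EC80 (standard) or EC40 (HTS).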", "units": {"IC50": "µM"}, "values": [{"smiles": "Cc1ccnc(NCc2cn(-c3ccc(Cl)c(C(F)F)c3)nn2)n1", "note": "[Example 201, N-[[1-[4-Chloro-3-(difluoromethyl)phenyl]triazol-4-yl]methyl]-4-methyl-pyrimidin-2-amine]", "IC50": 0.1}, {"smiles": "CCc1cnc(NCc2cn(-c3ccc(Cl)c(C(F)F)c3)nn2)nc1", "note": "[Example 202, N-[[1-[4-Chloro-3-(difluoromethyl)phenyl]triazol-4-yl]methyl]-5-ethyl-pyrimidin-2-amine]", "IC50": 0.044}, {"smiles": "COc1cnc(NCc2cn(-c3ccc(Cl)c(C(F)F)c3)nn2)nc1", "note": "[Example 203, N-[[1-[4-Chloro-3-(difluoromethyl)phenyl]triazol-4-yl]methyl]-5-methoxy-pyrimidin-2-amine]", "IC50": 0.03}, {"smiles": "FC(F)c1cnc(NCc2cn(-c3ccc(Cl)c(C(F)F)c3)nn2)nc1", "note": "[Example 204, N-[[1-[4-Chloro-3-(difluoromethyl)phenyl]triazol-4-yl]methyl]-5-(difluoromethyl)pyrimidin-2-amine]", "IC50": 0.24}, {"smiles": "FC(F)c1cc(-n2cc(CNc3ncc(C(F)(F)F)cn3)nn2)ccc1Cl", "note": "[Example 205, N-[[1-[4-Chloro-3-(difluoromethyl)phenyl]triazol-4-yl]methyl]-5-(trifluoromethyl)pyrimidin-2-amine]", "IC50": 0.616}, {"smiles": "Cc1cnc(NCc2cn(-c3ccc(F)c(C(C)(F)F)c3)nn2)nc1", "note": "[Example 206, N-[[1-[3-(1,1-Difluoroethyl)-4-fluoro-phenyl]triazol-4-yl]methyl]-5-methyl-pyrimidin-2-amine]", "IC50": 0.219}, {"smiles": "CCc1cnc(NCc2cn(-c3ccc(F)c(C(C)(F)F)c3)nn2)nc1", "note": "[Example 207, N-[[1-[3-(1,1-Difluoroethyl)-4-fluoro-phenyl]triazol-4-yl]methyl]-5-ethyl-pyrimidin-2-amine]", "IC50": 0.128}, {"smiles": "CC(C)c1cnc(NCc2cn(-c3ccc(F)c(C(C)(F)F)c3)nn2)nc1", "note": "[Example 208, N-[[1-[3-(1,1-Difluoroethyl)-4-fluoro-phenyl]triazol-4-yl]methyl]-5-isopropyl-pyrimidin-2-amine]", "IC50": 0.581}, {"smiles": "CC(F)(F)c1cc(-n2cc(CNc3ncc(C4CC4)cn3)nn2)ccc1F", "note": "[Example 209, 5-Cyclopropyl-N-[[1-[3-(1,1-difluoroethyl)-4-fluoro-phenyl]triazol-4-yl]methyl]pyrimidin-2-amine]", "IC50": 0.104}, {"smiles": "Cc1cnc(NCc2cn(-c3ccc(F)c(C(C)(F)F)c3)nn2)nc1C", "note": "[Example 210, N-[[1-[3-(1,1-Difluoroethyl)-4-fluoro-phenyl]triazol-4-yl]methyl]-4,5-dimethyl-pyrimidin-2-amine]", "IC50": 0.05}, {"smiles": "Cc1cnc(NCc2cn(-c3ccc(F)c(C(F)F)c3)nn2)nc1", "note": "[Example 211, N-[[1-[3-(Difluoromethyl)-4-fluoro-phenyl]triazol-4-yl]methyl]-5-methyl-pyrimidin-2-amine]", "IC50": 0.049}, {"smiles": "Fc1ccc(-n2cc(CNc3ncc(Cl)cn3)nn2)cc1C(F)F", "note": "[Example 212, 5-Chloro-N-[[1-[3-(difluoromethyl)-4-fluoro-phenyl]triazol-4-yl]methyl]pyrimidin-2-amine]", "IC50": 0.074}, {"smiles": "Fc1ccc(-n2cc(CNc3ncc(C(F)(F)F)cn3)nn2)cc1C(F)F", "note": "[Example 213, N-[[1-[3-(Difluoromethyl)-4-fluoro-phenyl]triazol-4-yl]methyl]-5-(trifluoromethyl)pyrimidin-2-amine]", "IC50": 0.108}, {"smiles": "CC(C)(O)c1cnc(NCc2cn(-c3ccc(F)c(C(F)F)c3)nn2)nc1", "note": "[Example 214, 2-[2-[[1-[3-(Difluoromethyl)-4-fluoro-phenyl]triazol-4-yl]methylamino]pyrimidin-5-yl]propan-2-ol]", "IC50": 0.654}, {"smiles": "Fc1ccc(-n2cc(CNc3ccccn3)nn2)cc1C(F)F", "note": "[Example 215, N-((1-(3-(Difluoromethyl)-4-fluorophenyl)-1H-1,2,3-triazol-4-yl)methyl)pyridin-2-amine]", "IC50": 0.986}, {"smiles": "CCc1cnc(NCc2cn(-c3ccc(F)c(C(F)F)c3)nn2)nc1", "note": "[Example 216, N-((1-(3-(Difluoromethyl)-4-fluorophenyl)-1H-1,2,3-triazol-4-yl)methyl)-5-ethylpyrimidin-2-amine]", "IC50": 0.026}, {"smiles": "Cc1cnc(NCc2cn(-c3ccc(F)c(C(F)F)c3)nn2)nc1C", "note": "[Example 217, N-((1-(3-(Difluoromethyl)-4-fluorophenyl)-1H-1,2,3-triazol-4-yl)methyl)-4,5-dimethylpyrimidin-2-amine]", "IC50": 0.012}, {"smiles": "Cc1nc(NCc2cn(-c3ccc(F)c(C(F)F)c3)nn2)ncc1Cl", "note": "[Example 218, 5-Chloro-N-((1-(3-(difluoromethyl)-4-fluorophenyl)-1H-1,2,3-triazol-4-yl)methyl)-4-methylpyrimidin-2-amine]", "IC50": 0.011}, {"smiles": "Cn1nccc1NCc1cn(-c2ccc(F)c(C(F)F)c2)nn1", "note": "[Example 219, N-((1-(3-(Difluoromethyl)-4-fluorophenyl)-1H-1,2,3-triazol-4-yl)methyl)-1-methyl-1H-pyrazol-5-amine]", "IC50": "> 10"}, {"smiles": "Cn1ccnc1NCc1cn(-c2ccc(F)c(C(F)F)c2)nn1", "note": "[Example 220, N-((1-(3-(Difluoromethyl)-4-fluorophenyl)-1H-1,2,3-triazol-4-yl)methyl)-1-methyl-1H-imidazol-2-amine]", "IC50": 3.65}, {"smiles": "Fc1ccc(-n2cc(CNc3ccccn3)nn2)cc1OC(F)F", "note": "[Example 221, N-((1-(3-(Difluoromethoxy)-4-fluorophenyl)-1H-1,2,3-triazol-4-yl)methyl)pyridin-2-amine]", "IC50": 0.724}, {"smiles": "Cc1cnc(NCc2cn(-c3ccc(F)c(OC(F)F)c3)nn2)nc1", "note": "[Example 222, N-((1-(3-(Difluoromethoxy)-4-fluorophenyl)-1H-1,2,3-triazol-4-yl)methyl)-5-methylpyrimidin-2-amine]", "IC50": 0.064}, {"smiles": "Cn1nccc1NCc1cn(-c2ccc(F)c(OC(F)F)c2)nn1", "note": "[Example 223, N-((1-(3-(Difluoromethoxy)-4-fluorophenyl)-1H-1,2,3-triazol-4-yl)methyl)-1-methyl-1H-pyrazol-5-amine]", "IC50": 11.8}, {"smiles": "Cc1cnc(N[C@H](C)c2cn(-c3ccc(Cl)c(OC(F)F)c3)nn2)nc1", "note": "[Example 224, N-[(1R)-1-[1-[4-Chloro-3-(difluoromethoxy)phenyl]triazol-4-yl]ethyl]-5-methyl-pyrimidin-2-amine]", "IC50": 0.121}, {"smiles": "Clc1ccc(-n2cc(COc3ncc(Cl)cn3)nn2)cc1", "note": "[Example 225, 5-Chloro-2-[[1-(4-chlorophenyl)triazol-4-yl]methoxy]pyrimidine]", "IC50": 0.07}, {"smiles": "FC(F)(F)c1cnc(OCc2cn(-c3ccc(Cl)cc3)nn2)nc1", "note": "[Example 226, 2-[[1-(4-Chlorophenyl)triazol-4-yl]methoxy]-5-(trifluoromethyl)pyrimidine]", "IC50": 0.155}, {"smiles": "FC(F)Oc1cnc(OCc2cn(-c3ccc(Cl)cc3)nn2)nc1", "note": "[Example 227, 2-[[1-(4-Chlorophenyl)triazol-4-yl]methoxy]-5-(difluoromethoxy)pyrimidine]", "IC50": 0.151}, {"smiles": "Fc1cccc(-n2cc(COc3ncccn3)nn2)c1", "note": "[Example 228, 2-[[1-(3-Fluorophenyl)triazol-4-yl]methoxy]pyrimidine]", "IC50": 5.65}, {"smiles": "Fc1cnc(OCc2cn(-c3cccc(F)c3)nn2)nc1", "note": "[Example 229, 5-Fluoro-2-[[1-(3-fluorophenyl)triazol-4-yl]methoxy]pyrimidine]", "IC50": 2.98}, {"smiles": "COc1cnc(OCc2cn(-c3cccc(F)c3)nn2)nc1", "note": "[Example 230, 2-[[1-(3-Fluorophenyl)triazol-4-yl]methoxy]-5-methoxy-pyrimidine]", "IC50": 0.275}, {"smiles": "Fc1cccc(-n2cc(COc3ncc(Cl)cn3)nn2)c1", "note": "[Example 231, 5-Chloro-2-[[1-(3-fluorophenyl)triazol-4-yl]methoxy]pyrimidine]", "IC50": 0.389}, {"smiles": "Cc1cnc(OCc2cn(-c3cccc(F)c3)nn2)nc1", "note": "[Example 232, 2-[[1-(3-Fluorophenyl)triazol-4-yl]methoxy]-5-methyl-pyrimidine]", "IC50": 0.205}, {"smiles": "CCc1cnc(OCc2cn(-c3cccc(F)c3)nn2)nc1", "note": "[Example 233, 5-Ethyl-2-[[1-(3-fluorophenyl)triazol-4-yl]methoxy]pyrimidine]", "IC50": 0.075}, {"smiles": "Cc1cnc(OCc2cn(-c3cccc(Br)c3)nn2)nc1", "note": "[Example 234, 2-[[1-(3-Bromophenyl)triazol-4-yl]methoxy]-5-methyl-pyrimidine]", "IC50": 0.022}, {"smiles": "Cc1ccccc1-n1cc(COc2ncccn2)nn1", "note": "[Example 236, 2-[[1-(o-Tolyl)triazol-4-yl]methoxy]pyrimidine]", "IC50": "> 10"}, {"smiles": "Cc1ccccc1-n1cc(COc2ncc(F)cn2)nn1", "note": "[Example 237, 5-Fluoro-2-[[1-(o-tolyl)triazol-4-yl]methoxy]pyrimidine]", "IC50": 16.6}, {"smiles": "COc1cnc(OCc2cn(-c3ccccc3C)nn2)nc1", "note": "[Example 238, 5-Methoxy-2-[[1-(o-tolyl)triazol-4-yl]methoxy]pyrimidine]", "IC50": 5.99}, {"smiles": "Cc1ccccc1-n1cc(COc2ncc(Cl)cn2)nn1", "note": "[Example 239, 5-Chloro-2-[[1-(o-tolyl)triazol-4-yl]methoxy]pyrimidine]", "IC50": 4.8}, {"smiles": "Cc1cnc(OCc2cn(-c3ccccc3C)nn2)nc1", "note": "[Example 240, 5-Methyl-2-[[1-(o-tolyl)triazol-4-yl]methoxy]pyrimidine]", "IC50": 5.58}, {"smiles": "CCc1cnc(OCc2cn(-c3ccccc3C)nn2)nc1", "note": "[Example 241, 5-Ethyl-2-[[1-(o-tolyl)triazol-4-yl]methoxy]pyrimidine]", "IC50": 1.46}, {"smiles": "Cc1cccc(-n2cc(COc3ncccn3)nn2)c1", "note": "[Example 242, 2-[[1-(m-Tolyl)triazol-4-yl]methoxy]pyrimidine]", "IC50": 0.647}, {"smiles": "Cc1cnc(OCc2cn(-c3cccc(C)c3)nn2)nc1", "note": "[Example 243, 5-Methyl-2-[[1-(m-tolyl)triazol-4-yl]methoxy]pyrimidine]", "IC50": 0.014}, {"smiles": "Cc1cccc(-n2cc(COc3nccc(C)n3)nn2)c1", "note": "[Example 244, 4-Methyl-2-[[1-(m-tolyl)triazol-4-yl]methoxy]pyrimidine]", "IC50": 0.191}, {"smiles": "CCc1cnc(OCc2cn(-c3cccc(C)c3)nn2)nc1", "note": "[Example 245, 5-Ethyl-2-[[1-(m-tolyl)triazol-4-yl]methoxy]pyrimidine]", "IC50": 0.01}, {"smiles": "Cc1cccc(-n2cc(COc3ncc(Cl)cn3)nn2)c1", "note": "[Example 246, 5-Chloro-2-[[1-(m-tolyl)triazol-4-yl]methoxy]pyrimidine]", "IC50": 0.033}]}]}
